Source: paper PMC9964390, “Design, Synthesis and Phenotypic Profiling of Simplified Gedatolisib Analogues” (Pharmaceuticals, 2023)
Converted amounts (≈) assume the structure as drawn. Like-named read-outs stand apart in the source and are kept apart here.

Tests used:
[1] = pH-dependent aqueous solubility (UV spectrophotometry); assay type: physicochemical; details: aqueous buffer, thermodynamic from solid, 37 °C
Procedure: A stock solution of the target compound was prepared by dissolving 1 mg in methanol, and the wavelength of greatest absorption of each compound was obtained by scanning between wavelengths from 200 nm to 500 nm. Six dilutions were prepared from the stock solution and the absorbance reading in the UV spectrophotometer (SpectraMax M5, Molecular Devices, USA). The calibration curve with linear regression was created with the values obtained, and the solubility test was measured by correlating the concentration with the absorbance obtained by ultraviolet. Each compound was added in excess at phosphate buffer solution pH 5.8 and 7.4 to obtain a supersaturated solution that was kept under stirring for 4 h at 37 °C and then was filtered through a 0.45 µm filter for reading at the corresponding wavelengths. The solubility was determined through the equation of the straight line obtained by the linear regression of the calibration curve of the compounds [24, 25].

K562 = experiment: MTT cell viability assay; assay type: cell-based; details: Homo sapiens, K562, 72 h MTT; for CC50: 95% confidence interval in brackets; for Emax: read-out: Emax (maximum effect at maximum concentration used)
Procedure: (§1) For the evaluation of cellular cytotoxicity in cancer cell lines, the compounds were tested at concentrations ranging from 0.00003 μM to 150 μM. Immortalized cancer cells were selected: PC-3 (PTEN-mutated prostate adenocarcinoma), MCF-7 (PI3KCA-mutated breast carcinoma), K562 (P53-mutated chronic myeloid leukemia), CCRF-CEM (acute lymphoblastic leukemia with mutation in PTEN) and MOLT-4 (acute lymphoblastic leukemia with mutation in PI3KR1/PTEN). Peripheral blood mononuclear cells (PBMCs) were used to determine the cytotoxic selectivity index (SI). All immortalized cells were cultured in RPMI 1640 medium with 10% (v/v) FBS, streptomycin + penicillin, at 37 °C in a humidified incubator containing 5% CO2.
(§2) Cell viability was assessed by the MTT assay. The lines selected for this study were plated according to their respective densities, which ranged from 3 × 10^4 to 4 × 10^4 cells per well. Subsequently, they were treated with test compounds at different concentrations (0.00003 μM to 150 μM), gedatolisib and GSK-1059615.
(§3) After incubation, the plates are centrifuged at 440× g for 10 min. Then, 110 μL of the supernatant was withdrawn and each well received 10μL of the MTT solution. The plate was again incubated in an oven at 37 °C and 5% CO2 for 3 to 4 h. At the end of the incubation time, 100 μL of SDS-HCL detergent was added to solubilize the formazan crystals. The plate was shaken on an automatic overnight shaker and then read at a wavelength of 595 nm on the Molecular Devices Spectramax M5 plate reader.

MCF7 = experiment: MTT cell viability assay; assay type: cell-based; details: Homo sapiens, MCF7, 72 h MTT; for CC50: 95% confidence interval in brackets; for Emax: read-out: Emax (maximum effect at maximum concentration used)
Procedure: as §1, §2, §3

PC-3 = experiment: MTT cell viability assay; assay type: cell-based; details: Homo sapiens, PC-3, 72 h MTT; for CC50: 95% confidence interval in brackets; for Emax: read-out: Emax (maximum effect at maximum concentration used)
Procedure: as §1, §2, §3

CCRF-CEM = experiment: MTT cell viability assay; assay type: cell-based, human; details: Homo sapiens, 72 h MTT; for CC50: 95% confidence interval in brackets; for Emax: read-out: Emax (maximum effect at maximum concentration used)
Procedure: as §1, §2, §3

MOLT-4 = experiment: MTT cell viability assay; assay type: cell-based, human; details: Homo sapiens, MOLT-4, 72 h MTT; for CC50: 95% confidence interval in brackets; for Emax: read-out: Emax (maximum effect at maximum concentration used)
Procedure: as §1, §2, §3

[2] = tested on: PC-3, MCF7, K562, CCRF-CEM and MOLT-4; experiment: MTT single-concentration cytotoxicity screening; assay type: cell-based, human; details: for cytotoxic effect on leukemia cell lines at single concentration: single concentration 30 μM, reduction in cell viability ≥ 50% selected for CC50; for solubility in the culture medium: during screening at 30 μM; for cytotoxic activity at screening concentration: single concentration 1 μM
Procedure: In a first approach, the assay was validated with two standard drugs: gedatolisib and GSK-1059615.
After understanding the response profile of the selected cell lines to the treatment with gedatolisib and GSK-1059615, we investigated the cytotoxic activity of compounds 5a-f at a single concentration (30 μM). […] During the experiments, compounds 5a (LASSBio-2250), 5b (LASSBio-2251) and 9 (CAS-942789959) were insoluble and precipitated on the culture medium. Therefore, they were evaluated also at the screening concentration of 1 μM.
as §2, §3

CCRF-CEM cell line = experiment: Muse Cell Cycle Kit; assay type: cell-based, human; details: 48 h
Procedure: The Guava Muse Luminex® Cell Cycle Kit (catalog n^o MCH100106, Luminex) contains the DNA marker propidium iodide (PI) and RNAse A to avoid nonspecific labelling.
After 48 h of incubation in an incubator at 37 °C with 5% CO2, 1 mL of the MOLT-4 cell solution and 500 µL of the CCRF-CEM cell solution, contained in the wells, were transferred to Eppendorf tubes and centrifuged at 300× g for 5 min. The volumes used ensured that the cell density remained within the recommended range (1 × 10^6 to 4 × 10^6 cells/mL) at the end of the 48 h incubation period.
The supernatant was discarded, and the pellet formed was resuspended in 1 mL of saline PBS, homogenised, and centrifuged at 300× g for 5 min. The formed pellet was resuspended in residual PBS by homogenization. To fix cellular events, 1 mL of ice-cold 70% alcohol was added dropwise into the tubes and vortexed at medium speed. The samples were incubated, before staining, for at least 3 h at −20 °C.
At the end of the incubation time at −20 °C, the samples were centrifuged at 300× g for 5 min, and then the supernatant was discarded and resuspended in 250 µL of PBS. The samples were again centrifuged at 300× g for 5 min and the supernatant discarded, which constituted the washing step. The pellet formed was resuspended in 200 µL of the Guava Muse Luminex® Cell Cycle, and the tubes were incubated for 30 min at room temperature, away from light.
After incubation, the samples were read in Guava Muse Luminex®, and the data with the histograms generated, which contain information on the percentage of the different phases of the cell cycle, were analysed in the statistical program Prism6. This methodology was performed in duplicate of three independent experiments.

[3] = phosphate buffer pH 5.8 (duodenum), read-out: Solubility pH 5.8
[4] = phosphate buffer pH 7.4 (plasma), read-out: Solubility pH 7.4

SMILES | solubility at 4 h [1, 3] [µM] | solubility at 4 h [1, 4] [µM] | melting point [°C] | CC50 (K562) [µM] | Emax (K562) [%] | CC50 (MCF7) [µM] | Emax (MCF7) [%] | CC50 (PC-3) [µM] | Emax (PC-3) [%] | CC50 (CCRF-CEM) [µM] | Emax (CCRF-CEM) [%] | CC50 (MOLT-4) [µM] | Emax (MOLT-4) [%] | solubility in the culture medium [2] | cytotoxic activity at screening concentration [2] | other results
CC[C@]1(O)C[C@H]2CN(CCc3c([nH]c4ccccc34)[C@@](C(=O)OC)(c3cc4c(cc3OC)N(C=O)[C@H]3[C@@](O)(C(=O)OC)[C@H](OC(C)=O)[C@]5(CC)C=CCN6CC[C@]43[C@@H]65)C2)C1 [Vincristine, vincristine] | – | – | – | – | – | – | – | – | – | – | – | – | – | – | – | action on the cell cycle (CCRF-CEM cell line; 5 µM): increased arrest in the G2/M phase
O=C1NC(=O)/C(=C/c2ccc3nccc(-c4ccncc4)c3c2)S1 [GSK-1059615, reference compound] | – | – | – | 1.82 | 84 | 0.55 | 80 | 6.78 | 67 | 0.43 | 93 | 0.63 | 92 | – | – | –
COc1cccc2c1C(=O)c1c(O)c3c(c(O)c1C2=O)C[C@@](O)(C(=O)CO)C[C@@H]3O[C@H]1C[C@H](N)[C@H](O)[C@H](C)O1 [doxorubicin] | – | – | – | – | – | – | – | – | – | – | – | – | – | – | – | action on the cell cycle (CCRF-CEM cell line; 0.5 µM): nonspecific action on the cell cycle
c1ccc(N2CCN(c3nc(N4CCOCC4)nc(N4CCOCC4)n3)CC2)cc1 [compound 9, reference compound] | 3.92 (≈ 1.61 µg/mL) | 6.03 (≈ 2.48 µg/mL) | – | – | – | – | – | – | – | – | – | – | – | insoluble | inactive | –

Continued, in another order:

solubility at 4 h [1, 3] [µM] | solubility at 4 h [1, 4] [µM] | melting point [°C] | SMILES | CC50 (K562) [µM] | Emax (K562) [%] | CC50 (MCF7) [µM] | Emax (MCF7) [%] | CC50 (PC-3) [µM] | Emax (PC-3) [%] | CC50 (CCRF-CEM) [µM] | Emax (CCRF-CEM) [%] | CC50 (MOLT-4) [µM] | Emax (MOLT-4) [%] | solubility in the culture medium [2] | cytotoxic activity at screening concentration [2] | other results
30.7 (≈ 13 µg/mL) | 50.9 (≈ 21.6 µg/mL) | 135 | CN1CCN(c2nc(N3CCOCC3)nc(N3CCN(c4ccccc4)CC3)n2)CC1 [5d, 4-(4-(4-Methylpiperazin-1-yl)-6-(4-phenylpiperazin-1-yl)-1,3,5-triazin-2-yl)morpholine] | 50.2 | 80 | > 100 | 77 | 91.3 | 72 | 66.5 | 95 | 64.1 | 91 | – | – | cytotoxic effect on leukemia cell lines at single concentration [2]: cytotoxic effect
43.4 (≈ 17.8 µg/mL) | 59.1 (≈ 24.3 µg/mL) | – | c1ccc(N2CCN(c3nc(N4CCNCC4)nc(N4CCOCC4)n3)CC2)cc1 [5c] | 25.6 | 85 | > 100 | 57 | 92.3 | 58 | 37.3 | 94 | 31.8 | 93 | – | – | cytotoxic effect on leukemia cell lines at single concentration [2]: cytotoxic effect
2.84 (≈ 1.16 µg/mL) | 0.51 (≈ 0.209 µg/mL) | – | c1ccc(N2CCN(c3nc(N4CCCCC4)nc(N4CCOCC4)n3)CC2)cc1 [5b, 4-(4-(4-Phenylpiperazin-1-yl)-6-(piperidin-1-yl)-1,3,5-triazin-2-yl)morpholine] | – | – | – | – | – | – | – | – | – | – | insoluble | inactive | –
0.52 (≈ 0.222 µg/mL) | 2.88 (≈ 1.23 µg/mL) | 170 | c1ccc(N2CCN(c3nc(N4CCOCC4)nc(N4CCSCC4)n3)CC2)cc1 [5a, 4-(4-(4-Phenylpiperazin-1-yl)-6-thiomorpholino-1,3,5-triazin-2-yl)morpholine] | – | – | – | – | – | – | – | – | – | – | insoluble | inactive | –
31.2 (≈ 14.2 µg/mL) | 49.1 (≈ 22.3 µg/mL) | 92 | OCCN1CCN(c2nc(N3CCOCC3)nc(N3CCN(c4ccccc4)CC3)n2)CC1 [5e, 2-(4-(4-Morpholino-6-(4-phenylpiperazin-1-yl)-1,3,5-triazin-2-yl)piperazin-1-yl)ethan-1-ol] | – | – | – | – | – | – | – | – | – | – | – | – | –
